The target in assay [1] is T1, JAK1 (Homo sapiens, UniProt P23458). The experiment in a line: Cellular JAK1 activity assay: IL-6-stimulated STAT3 phosphorylation in TF-1 cells. Type of assay: cell-based. Also on record: endogenous in cells; host or cells: TF-1 cells (ATCC). To be noted: IL-6 (30 ng/mL), pSTAT3, read-out: IC50 Cell JAK1.
The target of assay [2] is T1, JAK1. Description: Human whole blood JAK1 activity assay: IL-6-induced STAT1 phosphorylation (CD4+ T cells). Type of assay: cell-based. The arrangement: endogenous in cells. To be noted: IL-6 (100 ng/mL), read-out: IC50_JAK1 (IL6/pSTAT1). On the procedure:
Compound inhibition of JAK1 and JAK2 activities was measured in human whole blood: inhibition of IL-6-induced STAT1 phosphorylation (CD4+ T cells) and GM-CSF-induced STAT5 phosphorylation (CD33+ cells) in human whole blood were respectively analysized. The experimental procedures are shown as follows:
1) Human whole blood was collected into heparinized tubes, and seeded in a 96-well plate at 100 µL/well, and incubated in a cell incubator for 15 minutes.
2) Different concentrations of compounds (25 μL/well) were added into desired wells and incubated at 37° C. under 5% CO2 for 30 minutes. The final concentration of DMSO was 0.2%.
3) Blood cells were stimulated with recombinant human IL-6 (100 ng/mL) or recombinant human GM-CSF (20 ng/mL) or PBS at 37° C. and 5% CO2 for 20 minutes.
4) The blood was treated with pre-warmed 1× Lysis/Fixing Buffer (BD Phosflow) at 37° C. for 10 minutes to lyse erythrocytes and fix leukocytes.
5) After the cells were permeabilized with pre-cooled buffer (Perm buffer III) on ice for 60 minutes, anti-pSTAT1 and anti-CD4 antibodies (IL-6 stimulated samples) or anti-pSTAT5 and anti-CD33 antibodies (GM-CSF stimulated samples) were used to stain the samples at 4° C. for 60 minutes.
7) The cells were washed twice and resuspended in buffer for FACS analysis (Thermo Attune NxT).

The target in a further assay is T2, JAK3 protein (Homo sapiens, UniProt P52333).
T2 construct: purchased Carna Biosciences
T2 sequence (P52333 1-1124): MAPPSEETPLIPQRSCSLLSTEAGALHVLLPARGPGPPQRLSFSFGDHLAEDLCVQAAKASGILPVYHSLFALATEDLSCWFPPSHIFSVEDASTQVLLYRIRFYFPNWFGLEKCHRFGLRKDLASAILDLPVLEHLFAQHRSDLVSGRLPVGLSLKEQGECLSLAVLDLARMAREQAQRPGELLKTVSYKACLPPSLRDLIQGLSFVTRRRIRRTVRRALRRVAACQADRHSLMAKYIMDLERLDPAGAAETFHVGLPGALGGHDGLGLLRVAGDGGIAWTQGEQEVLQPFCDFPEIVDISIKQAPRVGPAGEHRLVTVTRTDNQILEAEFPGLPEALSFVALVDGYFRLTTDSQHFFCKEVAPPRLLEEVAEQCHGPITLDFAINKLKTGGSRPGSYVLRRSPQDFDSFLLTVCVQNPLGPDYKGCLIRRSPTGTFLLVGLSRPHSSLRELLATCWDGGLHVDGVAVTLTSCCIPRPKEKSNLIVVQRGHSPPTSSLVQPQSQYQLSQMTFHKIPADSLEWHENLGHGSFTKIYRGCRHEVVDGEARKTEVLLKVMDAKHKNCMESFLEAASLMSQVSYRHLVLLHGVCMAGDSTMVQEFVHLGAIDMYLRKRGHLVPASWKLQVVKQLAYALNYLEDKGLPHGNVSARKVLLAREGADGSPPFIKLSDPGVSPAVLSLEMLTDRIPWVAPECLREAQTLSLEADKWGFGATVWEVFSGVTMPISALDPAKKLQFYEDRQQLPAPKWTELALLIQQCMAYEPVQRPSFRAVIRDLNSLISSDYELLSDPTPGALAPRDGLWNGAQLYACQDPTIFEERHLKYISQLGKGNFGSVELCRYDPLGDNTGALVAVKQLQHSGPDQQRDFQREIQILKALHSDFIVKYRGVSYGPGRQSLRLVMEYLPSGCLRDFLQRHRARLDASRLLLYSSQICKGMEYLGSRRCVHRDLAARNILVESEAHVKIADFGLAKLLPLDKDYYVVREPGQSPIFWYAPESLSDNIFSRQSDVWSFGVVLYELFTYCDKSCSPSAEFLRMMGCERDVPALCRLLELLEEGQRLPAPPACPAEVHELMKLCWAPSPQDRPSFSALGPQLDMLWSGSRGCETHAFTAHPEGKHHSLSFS
Description: In vitro JAK3 kinase activity assay (HTRF kinEASE TK). The assay is classed as biochemical. To be noted: 0.75 μM ATP, 25 minutes, room temperature; read-out: IC50 JAK3 (enzyme activity assay). In outline:
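Recombinant JAK3 ([…]) with 1 μM biotinylated TK substrate peptide and 0.75 μM ATP, 5 mM MgCl2, 1 mM DTT, 1% DMSO; 25 min at room temperature. HTRF read-out (SA-XL665, TK-antibody, overnight) as 665/620 ratio; compounds 10 μM–0.04 nM, 4-fold, duplicates; IC50 from 4-parameter fit.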

The structures appear in SMILES notation. Where only a bound is given, the exact number is not on record here.

T1 sequence (P23458 whole entry): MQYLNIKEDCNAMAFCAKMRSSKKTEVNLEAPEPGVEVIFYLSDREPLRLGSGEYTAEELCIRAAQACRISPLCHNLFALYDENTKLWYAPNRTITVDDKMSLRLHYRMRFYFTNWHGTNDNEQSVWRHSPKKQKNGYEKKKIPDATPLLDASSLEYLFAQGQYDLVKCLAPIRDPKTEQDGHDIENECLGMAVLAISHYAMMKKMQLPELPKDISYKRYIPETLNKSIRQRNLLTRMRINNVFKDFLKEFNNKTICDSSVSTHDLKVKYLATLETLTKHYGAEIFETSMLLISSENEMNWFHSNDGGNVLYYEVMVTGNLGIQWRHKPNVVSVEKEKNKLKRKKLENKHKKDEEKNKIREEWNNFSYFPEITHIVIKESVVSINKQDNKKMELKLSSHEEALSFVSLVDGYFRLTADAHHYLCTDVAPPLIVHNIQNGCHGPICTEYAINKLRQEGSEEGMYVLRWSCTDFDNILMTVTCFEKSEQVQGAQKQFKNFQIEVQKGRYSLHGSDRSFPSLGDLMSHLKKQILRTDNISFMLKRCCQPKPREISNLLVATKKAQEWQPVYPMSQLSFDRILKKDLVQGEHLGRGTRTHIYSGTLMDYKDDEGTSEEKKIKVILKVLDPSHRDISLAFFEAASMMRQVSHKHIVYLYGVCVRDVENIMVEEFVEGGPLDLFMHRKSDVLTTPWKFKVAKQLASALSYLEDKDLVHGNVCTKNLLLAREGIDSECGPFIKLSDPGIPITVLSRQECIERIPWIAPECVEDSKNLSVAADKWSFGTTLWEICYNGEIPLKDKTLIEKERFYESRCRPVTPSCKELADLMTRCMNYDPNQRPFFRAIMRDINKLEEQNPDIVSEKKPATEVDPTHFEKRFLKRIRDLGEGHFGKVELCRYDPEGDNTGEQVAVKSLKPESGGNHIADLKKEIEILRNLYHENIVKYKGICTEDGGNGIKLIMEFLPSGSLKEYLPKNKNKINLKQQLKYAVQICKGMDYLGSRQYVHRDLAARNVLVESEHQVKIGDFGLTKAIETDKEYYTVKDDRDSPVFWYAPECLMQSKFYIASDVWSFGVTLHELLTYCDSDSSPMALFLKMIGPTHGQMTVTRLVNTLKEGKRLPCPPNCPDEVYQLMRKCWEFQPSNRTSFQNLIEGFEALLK

Take `CC[C@H](C(=O)Nc1nccc2c(-c3nc(Nc4cn(C)nc4OC)ncc3C)c[nH]c12)N1CCN(C)CC1` [Example 4, (R)—N-(3-(2-((3-Methoxy-1-methyl-1H-pyrazol-4-yl)amino)-5-methylpyrimidin-4-yl)-1H-pyrrolo[2,3-c]pyridin-7-yl)-2-(4-methylpiperazin-1-yl)butanamide]: the values for the IC50 at JAK1 [1], at JAK1 [2] and at JAK3 protein were below 100 nM, below 500 nM and below 500 nM, respectively.

The record behind these values is patent US12234232B2, “Aromatic heterocyclic compound with kinase inhibitory activity” (SHANGHAI ENNOVABIO PHARMACEUTICALS CO., LTD., priority 2018, dated 2025).
